Data from patent publication US7902261B2, “Medicinal compositions for preventing or treating viral myocarditis” (Mitsubishi Tanabe Pharma Corporation, priority 1999, dated 2011).
Structures can show the parent of a compound that is named as a salt.

Columns and labels:
[1] = system: IL-2; experiment: Intracardiac cytokine assay (ELISA), IL-2; format: in vivo, mouse; settings: heart ventricle at day 5; CsA 40 mg/kg/day, compound 1 10 mg/kg/day orally; mean ± SEM; control 12.79 ± 1.24
Procedure: (§1) Four-week-old male DBA/2 mice were divided into 3 groups and EMC virus (10 pfu) was intraperitoneally inoculated. After inoculation, distilled water (solvent, n=8) as a control, CsA (40 mg/kg/day, n=5), and compound 1 (10 mg/kg/day, n=7) were orally administered forcibly for 5 consecutive days using a probe. Five days later, the heart was aseptically harvested from the mice, and after weighing the ventricle, homogenized in phosphate-buffered saline (PBS, 1 ml). The homogenate was centrifuged at 4° C., 1,500 g for 15 min and the supernatant (0.1 ml) was inoculated to human amnion FL cell monolayer and cultured at 37° C. for 60 min in 5% CO2. The cells were overlaid with a medium (3 ml) containing 4% fetal calf serum and 1% methylcellulose. After culture under 5% CO2-containing humidified atmosphere at 37° C. for 20 hr, the cells were fixed with acetic acid-methanol (1:2) and stained with 1% crystal violet. The plaques were counted under an inverted microscope (Circulation. 89:846-851, 1994). When the plaques are too many to count, the supernatant is appropriately diluted with Dulbecco's modified Eagle's medium (DMEM) and subjected to a similar assay. […]
(§2) The total protein concentration of each supernatant was measured by bicinchoninic acid (BCA) method, and the ratio of the cytokine concentration to the total protein concentration was calculated (J. Am. Coll. Cardiol. 33:1400-1407, 1999). […]

[2] = system: EMC virus; experiment: Histopathological observation of the heart (Experimental Example 2); format: in vivo, male DBA/2 mice; settings: CsA 40 mg/kg/day, compound 1 10 mg/kg/day orally for 5 days, day 5, mean ± SEM
Procedure: (§3) Four-week-old DBA/2 mice were divided into 3 groups and EMC (Encephalomyocarditis) virus (10 pfu) was intraperitoneally inoculated. After inoculation, distilled water (solvent, n=9) as a control, compound 1 (3 mg/kg/day, n=8), and compound 1 (10 mg/kg/day, n=8) were orally administered forcibly for 5 consecutive days using a probe. Five days later, the heart was removed, and, after fixing with formalin, subjected to hematoxylin-eosin staining, based on which heart necrosis and cellular infiltration were scored as follows. • 0; no lesion, • 1+; lesion in 25% or less of the heart, • 2+; lesion in more than 25% and not more than 50% of the heart • 3+; lesion in more than 50% and not more than 75% of the heart • 4+; lesion in more than 75% and not more than 100% of the heart Results
Four-week-old male DBA/2 mice were divided into 3 groups and EMC virus (10 pfu) was intraperitoneally inoculated. […] Five days later, the heart was harvested, and, after fixing with formalin, subjected to hematoxylin-eosin staining, based on which heart necrosis and cellular infiltration were scored according to the criteria shown in Experimental Example 1.
The myocardial cell necrosis and cellular infiltration were independently scored by two observers and averaged. […]

[3] = system: EMC virus; experiment: Intracardiac virus titer (plaque assay on human amnion FL cells); format: in vivo, male DBA/2 mice; settings: CsA 40 mg/kg/day, compound 1 10 mg/kg/day orally for 5 days; heart at day 5; mean ± SEM; control 5.18 ± 2.73 × 10^6
Procedure: Four-week-old male DBA/2 mice were divided into 3 groups and EMC virus (10 pfu) was intraperitoneally inoculated. After inoculation, distilled water (solvent, n=8) as a control, CsA (40 mg/kg/day, n=5), and compound 1 (10 mg/kg/day, n=7) were orally administered forcibly for 5 consecutive days using a probe. Five days later, the heart was aseptically harvested from the mice, and after weighing the ventricle, homogenized in phosphate-buffered saline (PBS, 1 ml). The homogenate was centrifuged at 4° C., 1,500 g for 15 min and the supernatant (0.1 ml) was inoculated to human amnion FL cell monolayer and cultured at 37° C. for 60 min in 5% CO2. The cells were overlaid with a medium (3 ml) containing 4% fetal calf serum and 1% methylcellulose. After culture under 5% CO2-containing humidified atmosphere at 37° C. for 20 hr, the cells were fixed with acetic acid-methanol (1:2) and stained with 1% crystal violet. The plaques were counted under an inverted microscope (Circulation. 89:846-851, 1994). When the plaques are too many to count, the supernatant is appropriately diluted with Dulbecco's modified Eagle's medium (DMEM) and subjected to a similar assay. The test was repeated and the mean was taken. The virus titer was expressed in pfu/g heart. The statistical analysis was conducted by one way ANOVA and Fisher's protected least significant difference test.

[4] = system: IL-12; experiment: Intracardiac cytokine assay (ELISA), IL-12; format: in vivo, mouse; settings: heart ventricle at day 5; CsA 40 mg/kg/day, compound 1 10 mg/kg/day orally; mean ± SEM; control 71.76 ± 7.37
Procedure: as §1, §2

[5] = system: EMC (Encephalomyocarditis) virus; experiment: Histopathological observation of the heart (Experimental Example 1); format: in vivo, DBA/2 mice; settings: n=8, day 5, mean ± SEM; for necrosis of myocardial cell (score 0 to 4+): control 1.9 ± 0.2; for cellular infiltration (score 0 to 4+): control 2.0 ± 0.2
Procedure: as §3

[6] = system: IFN-γ; experiment: Intracardiac cytokine assay (ELISA), IFN-γ; format: in vivo, mouse; settings: heart ventricle at day 5; CsA 40 mg/kg/day, compound 1 10 mg/kg/day orally; mean ± SEM; control 151.20 ± 15.66
Procedure: as §1, §2

[7] = system: NO; experiment: Intracardiac nitric oxide (NO) assay (modified Griess method); format: in vivo, mouse; settings: heart ventricle at day 5; CsA 40 mg/kg/day, compound 1 10 mg/kg/day orally; mean ± SEM; control 2.07 ± 0.20
Procedure: as §1, with “After culture under 5% CO2-containing humidified atmosphere at 37° C. for 20 hr, the cells were fixed with acetic acid-methanol (1:2) and stained with 1% crystal violet.” left out, “1994).” for “1994). When the plaques are too many to count, the supernatant is appropriately diluted with Dulbecco's modified Eagle's medium (DMEM) and subjected to a similar assay.”
The intracardiac NO content was measured using the same supernatant as used for the cytokine assay according to a modified method of Griess method (J. Am. Coll. Cardiol. 33:1400-1407, 1999; Anal. Biochem. 224:502-508, 1995). […] Optical density at 540 nm was measured using a microplate reader. The nitrite concentration of each sample was calculated based on the standard product. […] The intracardiac NO content was determined by dividing each nitrite concentration by the total protein concentration of each supernatant and expressed in μM/mg total protein. […]

[8] = system: EMC (Encephalomyocarditis) virus; experiment: Survival rate, EMC viral myocarditis in mice (Experimental Example 1); format: in vivo, DBA/2 mice; settings: EMC virus 10 pfu i.p., control 0%
Procedure: Four-week-old DBA/2 mice were divided into 3 groups, and EMC (Encephalomyocarditis) virus (10 pfu) was intraperitoneally inoculated. After inoculation, distilled water (solvent, group A, n=11) as a control, compound 1 (1 mg/kg/day, group B, n=10), and compound 1 (3 mg/kg/day, group C, n=10) were orally administered forcibly for 14 consecutive days using a probe. The survival rate of each group after 14 days was compared by Kaplan-Meier method.

[9] = system: EMC virus; experiment: Survival rate, EMC viral myocarditis in mice (Experimental Example 2); format: in vivo, DBA/2 male mice; settings: compound 1 10 mg/kg/day orally for 14 days, n=22 (6 survived); control 0%
Procedure: The effects on viral myocarditis of compound 1 and an immunosuppressant, cyclosporin A (hereinafter to be referred to as CsA), were compared. The compound 1 was dissolved in sterile distilled water and administered, and CsA was dissolved in olive oil and administered.
Four-week-old DBA/2 male mice were divided into 3 groups, and EMC virus (10 pfu) was intraperitoneally inoculated. After inoculation, distilled water (solvent, control group, n=21), CsA (40 mg/kg/day, CsA group, n=9), and compound 1 (10 mg/kg/day, compound 1 group, n=22) were orally administered forcibly for 14 consecutive days using a probe. The survival rate of each group after 14 days was compared by Kaplan-Meier method.

[10] = system: TNF-α; experiment: Intracardiac cytokine assay (ELISA), TNF-α; format: in vivo, mouse; settings: heart ventricle at day 5; CsA 40 mg/kg/day, compound 1 10 mg/kg/day orally; mean ± SEM; control 4.11 ± 0.11
Procedure: as §1, §2

CCCCCCCCc1ccc(CCC(N)(CO)CO)cc1 [compound 1, 2-Amino-2-(2-(4-octylphenyl)ethyl)propane-1,3-diol hydrochloride]
IL-2 [1]: 6.06 ± 0.67 ng/mg total protein | necrosis of myocardial cell (score 0 to 4+) ([2]; control 1.89 ± 0.23): 1.00 ± 0.19 | cellular infiltration (score 0 to 4+) ([2]; control 2.00 ± 0.19): 1.06 ± 0.19 | virus titer [3]: 1.23 ± 0.53 × 10^7 (NS) pfu/g heart | IL-12 [4]: 46.00 ± 12.82 pg/mg total protein | necrosis of myocardial cell (score 0 to 4+) ([5]; 3 mg/kg/day orally for 5 days): 1.7 ± 0.4 | cellular infiltration (score 0 to 4+) ([5]; 3 mg/kg/day orally for 5 days): 1.6 ± 0.2 | necrosis of myocardial cell (score 0 to 4+) ([5]; 10 mg/kg/day orally for 5 days): 1.0 ± 0.2 | cellular infiltration (score 0 to 4+) ([5]; 10 mg/kg/day orally for 5 days): 1.1 ± 0.2 | IFN-γ [6]: 108.86 ± 12.98 pg/mg total protein | NO content [7]: 1.91 ± 0.34 μM/mg total protein | survival rate at day 14 ([8]; 1 mg/kg/day orally for 14 days (group B, n=10)): 10% | survival rate at day 14 ([8]; 3 mg/kg/day orally for 14 days (group C, n=10), p<0.05): 30% | survival rate at day 14 [9]: 27% | TNF-α [10]: 3.72 ± 0.25 ng/mg total protein
